# Experimental data taken from patent US9840513B2 (AbbVie S.à.r.l., priority 2015, dated 2017).
# Tests used:
# [1] = biological target: T1, F508delCFTR in primary hBE cells with F508del/F508del CFTR mutation (Homo sapiens, UniProt P13569, DEL508-508); assay: Transepithelial Clamp Circuit on Human Bronchial Epithelial Cells Conductance Assay (hBE-TECC); assay type: cell-based; conditions: for EC50: primary hBE cells F508del/F508del, 18-24 hours at 37° C., equivalent short circuit current, 6 concentrations
# T1 construct: cells isolated from CF patients with the homozygous mutation; endogenous in cells; host or cells: primary human bronchial epithelial (hBE) cells from F508del/F508del CF patients
# Description: Transepithelial Clamp Circuit on Human Bronchial Epithelial Cells Conductance Assay:
# A cell based assay using the primary human bronchial epithelial cells (hBE) was used as a secondary assay to test novel F508delCFTR correctors for their activity on primary hBE cells with F508del/F508del CFTR mutation. The assay used a TECC-24 (Transepithelial Clamp Circuit for 24 wells) instrument that measures the functionality of the mutated channel by measuring the equivalent short circuit current (Ieq) generated by the polarized epithelial cells. The instrument works by measuring the transepithelial potential difference (Vt) and transepithelial resistance (Rt) in an open circuit format, and the Ieq is calculated by using Ohms law (Ieq=Vt/Rt). The assay was run in a 24-well format and all 24-wells were measured at the same time point giving a higher throughput for this assay.
# Primary human bronchial epithelial (hBE) cells from F508del/F508delCFTR patients were expanded from 1×10^6 to 250×10^6 cells (Neuberger T, Burton B, Clark H and VanGoor F; Cystic Fibrosis, Methods in Mole Biol 741; eds. Amaral M D and Kunzelmann K, 2011). For this purpose, cells isolated from CF patients with the homozygous mutation were seeded onto 24 well Corning (Cat #3378) filter plates that were coated with 3T3 conditioned media and grown at an air-liquid interface for 35 days using an Ultroser® G supplemented differentiation media. Apical surface mucus was removed 72 hours before the experiment using 3 mM dithiothreitol (DTT) in phosphate buffered saline (PBS). The apical surface was washed again 24 hours before the experiment using PBS. The cells were incubated with the desired dose response of the corrector compounds 18-24 hours at 37° C., 5% CO2. The corrector compounds are only added on the basolateral side of the epithelial cells.
# On the day of measuring the corrector activity on the TECC, the cells were switched into a bicarbonate and serum free F-12 Coon's medium and allowed to equilibrate for 90 minutes in a CO2 free incubator. At the time of measurement, the apical and basolateral sides of the filter were bathed with the F-12 Coon's modification media (with 20 mM 4-(2-hydroxyethyl)-1-piperazineethanesulfonic acid (HEPES), pH 7.4 (using 1 M tris(hydroxymethyl)aminomethane (Tris)), and the measurements were made at 36.5° C. Transepithelial voltage (Vt) and transepithelial resistance (Rt) were measured using a 24 channel transepithelial current clamp (TECC-24). Current responses to the sequential addition of benzamil (apical 6 μM addition; for inhibiting epithelial ENaC channel), forskolin (apical and basolateral 10 μM addition; for activating the CFTR channel), control potentiator (N-(3-carbamoyl-5,5,7,7-tetramethyl-4,7-dihydro-5H-thieno[2,3-c]pyran-2-yl)-1H-pyrazole-5-carboxamide; apical and basolateral […] addition; for potentiating the CFTR channel) and bumetanide (basolateral 20 μM addition; for inhibiting the Na:2Cl:K co-transporter, an indirect measure of inhibiting the Cl-secretion driven by CFTR channel) were measured.
# All plates contained negative controls (dimethyl sulfoxide, DMSO) which coupled with the control potentiator (N-(3-carbamoyl-5,5,7,7-tetramethyl-4,7-dihydro-5H-thieno[2,3-c]pyran-2-yl)-1H-pyrazole-5-carboxamide) sets the null response and positive controls (3 μM of 3-[(2R,4R)-4-({[1-(2,2-difluoro-1,3-benzodioxol-5-yl)cyclopropyl]carbonyl}amino)-7-methoxy-3,4-dihydro-2H-chromen-2-yl]benzoic acid) coupled with the control potentiator sets the 100% response to measure the correction of the mutated CFTR channel. The maximum percent activity is reported relative to the positive control value.
# The % activity measured at each of the 6 test concentrations of the test compound was normalized to the on-plate positive control using the following formula: % activity=[[…]]*100 […]
# [2] = biological target: T2, F508delCFTR cell surface expression in CFBE41o-F508delCFTR-HRP cells (Homo sapiens, UniProt P13569, DEL508-508); assay: Cell Surface Expression-Horse Radish Peroxidase (CSE-HRP) Assay; assay type: cell-based; conditions: for EC50: CFBE41o-F508delCFTR-HRP cells, 18-24 hours at 33° C., 8-point curve, highest concentration 20 μM; for Maximum % activity (%): maximum at any tested concentration, normalized to on-plate positive control (3 μM)
# T2 construct: fused on or other part: Horseradish peroxidase (HRP) reporter inserted in the fourth exofacial (extracellular) loop of CFTR; expression is doxycycline-inducible
# Method in brief: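 CFBE41o- cells with HRP-tagged F508delCFTR, expression induced by 0.5 μg/mL doxycycline for 72 h at 37 °C, then compound for 18-24 h at 33 °C (8-point, 3-fold, top 20 μM). Surface HRP measured by luminol luminescence; % activity normalised to 3 μM positive-control corrector; EC50 from variable-slope sigmoidal fit, three replicate plates.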
# [3] = relative to positive control (3 μM) coupled with control potentiator
# T1 sequence (P13569 with tags, fused parts or gaps DEL508-508): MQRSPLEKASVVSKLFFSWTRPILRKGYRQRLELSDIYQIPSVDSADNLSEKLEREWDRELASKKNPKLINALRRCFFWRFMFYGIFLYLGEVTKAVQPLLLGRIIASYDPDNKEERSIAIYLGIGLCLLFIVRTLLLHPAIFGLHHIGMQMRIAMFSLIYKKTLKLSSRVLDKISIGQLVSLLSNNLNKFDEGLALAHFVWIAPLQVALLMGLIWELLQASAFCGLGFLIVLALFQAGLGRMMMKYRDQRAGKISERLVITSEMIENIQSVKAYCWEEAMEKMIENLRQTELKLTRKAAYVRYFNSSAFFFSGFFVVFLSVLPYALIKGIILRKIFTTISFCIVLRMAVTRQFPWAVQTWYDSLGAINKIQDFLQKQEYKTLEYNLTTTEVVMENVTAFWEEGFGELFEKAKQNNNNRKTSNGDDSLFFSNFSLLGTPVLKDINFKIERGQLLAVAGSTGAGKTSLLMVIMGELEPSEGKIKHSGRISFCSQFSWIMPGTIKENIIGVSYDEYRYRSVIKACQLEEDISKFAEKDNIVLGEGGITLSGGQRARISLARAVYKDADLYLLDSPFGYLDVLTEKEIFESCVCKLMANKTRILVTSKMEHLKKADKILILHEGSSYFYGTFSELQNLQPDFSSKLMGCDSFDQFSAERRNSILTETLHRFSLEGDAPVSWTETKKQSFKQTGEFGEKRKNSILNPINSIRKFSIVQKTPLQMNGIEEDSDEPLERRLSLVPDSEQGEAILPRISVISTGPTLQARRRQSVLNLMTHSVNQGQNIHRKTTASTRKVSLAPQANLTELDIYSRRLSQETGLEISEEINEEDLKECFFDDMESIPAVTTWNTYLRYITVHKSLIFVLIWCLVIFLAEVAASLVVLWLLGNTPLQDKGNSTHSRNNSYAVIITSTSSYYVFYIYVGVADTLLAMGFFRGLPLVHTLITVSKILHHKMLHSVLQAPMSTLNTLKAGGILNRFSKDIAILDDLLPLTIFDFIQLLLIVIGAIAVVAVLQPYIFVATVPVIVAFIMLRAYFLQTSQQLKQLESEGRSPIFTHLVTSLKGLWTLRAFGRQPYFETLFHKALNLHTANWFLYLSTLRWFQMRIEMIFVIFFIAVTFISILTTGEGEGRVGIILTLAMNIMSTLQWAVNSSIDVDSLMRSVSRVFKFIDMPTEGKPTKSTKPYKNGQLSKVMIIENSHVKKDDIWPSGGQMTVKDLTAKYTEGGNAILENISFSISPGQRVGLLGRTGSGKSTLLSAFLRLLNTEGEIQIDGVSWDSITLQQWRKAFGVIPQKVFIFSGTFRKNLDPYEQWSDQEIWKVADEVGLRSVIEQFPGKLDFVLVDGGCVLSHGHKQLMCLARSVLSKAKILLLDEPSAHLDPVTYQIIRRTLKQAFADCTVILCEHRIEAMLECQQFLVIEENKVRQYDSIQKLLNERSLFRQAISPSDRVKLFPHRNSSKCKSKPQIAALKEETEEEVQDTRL
# T2 sequence (P13569 with tags, fused parts or gaps DEL508-508 limits assumed): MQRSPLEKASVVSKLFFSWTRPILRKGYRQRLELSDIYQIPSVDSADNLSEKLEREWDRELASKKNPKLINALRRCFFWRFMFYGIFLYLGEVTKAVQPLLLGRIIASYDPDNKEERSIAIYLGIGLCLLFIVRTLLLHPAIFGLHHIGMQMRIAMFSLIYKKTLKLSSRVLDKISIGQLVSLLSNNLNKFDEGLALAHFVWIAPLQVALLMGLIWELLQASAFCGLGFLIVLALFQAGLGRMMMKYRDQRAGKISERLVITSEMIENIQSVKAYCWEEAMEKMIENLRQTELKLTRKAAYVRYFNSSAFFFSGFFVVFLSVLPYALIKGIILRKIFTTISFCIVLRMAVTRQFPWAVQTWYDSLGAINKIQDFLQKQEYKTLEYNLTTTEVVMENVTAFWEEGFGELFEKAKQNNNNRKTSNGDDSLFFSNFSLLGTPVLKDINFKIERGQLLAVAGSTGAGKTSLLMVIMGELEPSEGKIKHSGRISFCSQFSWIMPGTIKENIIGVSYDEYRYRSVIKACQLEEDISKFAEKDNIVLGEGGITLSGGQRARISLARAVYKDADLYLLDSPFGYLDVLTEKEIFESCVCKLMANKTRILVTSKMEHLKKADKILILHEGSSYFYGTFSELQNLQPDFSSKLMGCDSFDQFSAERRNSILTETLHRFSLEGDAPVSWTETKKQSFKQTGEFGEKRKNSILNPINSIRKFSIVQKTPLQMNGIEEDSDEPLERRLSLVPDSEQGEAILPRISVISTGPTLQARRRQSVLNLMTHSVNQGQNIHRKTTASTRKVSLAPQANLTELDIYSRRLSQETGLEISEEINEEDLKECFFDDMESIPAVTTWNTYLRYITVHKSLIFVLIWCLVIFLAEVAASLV
# T2 sequence (P13569 919-1480 limits assumed, stated change not applied): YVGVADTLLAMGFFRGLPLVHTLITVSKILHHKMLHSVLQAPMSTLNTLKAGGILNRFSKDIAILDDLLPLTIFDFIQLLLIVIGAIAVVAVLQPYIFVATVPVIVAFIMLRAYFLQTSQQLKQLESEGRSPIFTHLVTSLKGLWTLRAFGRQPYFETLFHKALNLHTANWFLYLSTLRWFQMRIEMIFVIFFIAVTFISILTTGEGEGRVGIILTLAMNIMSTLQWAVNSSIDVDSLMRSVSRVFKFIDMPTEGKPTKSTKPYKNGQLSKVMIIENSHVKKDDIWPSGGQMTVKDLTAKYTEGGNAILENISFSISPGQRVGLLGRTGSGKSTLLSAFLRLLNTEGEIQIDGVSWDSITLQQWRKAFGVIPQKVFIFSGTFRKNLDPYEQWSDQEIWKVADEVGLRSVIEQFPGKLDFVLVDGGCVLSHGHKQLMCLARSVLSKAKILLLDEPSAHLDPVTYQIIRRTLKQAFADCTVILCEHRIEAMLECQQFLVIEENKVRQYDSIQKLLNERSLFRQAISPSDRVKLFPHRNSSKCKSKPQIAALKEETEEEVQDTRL
Maximum % activity (%) ([1]; testing concentration 10 μM),EC50 [2],Maximum % activity (%) [2],Maximum % activity (%) ([1]; testing concentration 1 μM),EC50 [1],"Maximum % activity (%) [1, 3]",Structure (SMILES)
100%,240 nM,172%,,,,"Cc1ccc(NC(=O)[C@@]2(C)COc3cc4c(cc32)OC(F)(F)O4)nc1-c1ccc(C(=O)O)cc1 [Example 83, 4-(6-{[(7R)-2,2-difluoro-7-methyl-6,7-dihydro-2H-furo[2,3-f][1,3]benzodioxole-7-carbonyl]amino}-3-methylpyridin-2-yl)benzoic acid]"
,10 nM,112%,84%,,,"COc1ccc2c(c1)O[C@@H](c1ccc(C(=O)O)cn1)C[C@H]2NC(=O)[C@@]1(C)COc2cc3c(cc21)OC(F)(F)O3 [Example 89, 6-[(2R,4R)-4-{[(7R)-2,2-difluoro-7-methyl-6,7-dihydro-2H-furo[2,3-f][1,3]benzodioxole-7-carbonyl]amino}-7-methoxy-3,4-dihydro-2H-1-benzopyran-2-yl]pyridine-3-carboxylic acid]"
,620 nM,127%,65%,,,"C[C@]1(C(=O)Nc2cccc(N3CC[C@H](C(=O)O)C3)n2)COc2cc3c(cc21)OC(F)(F)O3 [Example 90, (3S)-1-(6-{[(7R)-2,2-difluoro-7-methyl-6,7-dihydro-2H-furo[2,3-f][1,3]benzodioxole-7-carbonyl]amino}pyridin-2-yl)pyrrolidine-3-carboxylic acid]"
,590 nM,167%,50%,,,"C[C@]1(C(=O)Nc2ccc(Cl)c(-c3cccc(C(=O)O)c3)n2)COc2cc3c(cc21)OC(F)(F)O3 [Example 95, 3-(3-chloro-6-{[(7R)-2,2-difluoro-7-methyl-6,7-dihydro-2H-furo[2,3-f][1,3]benzodioxole-7-carbonyl]amino}pyridin-2-yl)benzoic acid]"
,390 nM,105%,,67 nM,72%,"CC(C)(CO)c1cc2cc(NC(=O)[C@@]3(C)COc4cc5c(cc43)OC(F)(F)O5)c(F)cc2n1C[C@@H](O)CO [Example 130, (7R)—N-{1-[(2R)-2,3-dihydroxypropyl]-6-fluoro-2-(1-hydroxy-2-methylpropan-2-yl)-1H-indol-5-yl}-2,2-difluoro-7-methyl-6,7-dihydro-2H-furo[2,3-f][1,3]benzodioxole-7-carboxamide]"
,480 nM,109%,,197 nM,79%,"C[C@]1(C(=O)Nc2cc3cc(C4(CO)CCC4)n(C[C@@H](O)CO)c3cc2F)COc2cc3c(cc21)OC(F)(F)O3 [Example 134, (7R)—N-{1-[(2R)-2,3-dihydroxypropyl]-6-fluoro-2-[1-(hydroxymethyl)cyclobutyl]-1H-indol-5-yl}-2,2-difluoro-7-methyl-6,7-dihydro-2H-furo[2,3-f][1,3]benzodioxole-7-carboxamide]"
,2560 nM,58%,,2700 nM,62%,"C[C@]1(C(=O)Nc2cc3cc(C4(CO)COC4)n(C[C@@H](O)CO)c3cc2F)COc2cc3c(cc21)OC(F)(F)O3 [Example 135, (7R)—N-{1-[(2R)-2,3-dihydroxypropyl]-6-fluoro-2-[3-(hydroxymethyl)oxetan-3-yl]-1H-indol-5-yl}-2,2-difluoro-7-methyl-6,7-dihydro-2H-furo[2,3-f][1,3]benzodioxole-7-carboxamide]"
,910 nM,99%,,745 nM,48%,"C[C@]1(C(=O)Nc2cc3cc(C4(CO)CC4)n(C[C@@H](O)CO)c3cc2F)COc2cc3c(cc21)OC(F)(F)O3 [Example 136, (7R)—N-{1-[(2R)-2,3-dihydroxypropyl]-6-fluoro-2-[1-(hydroxymethyl)cyclopropyl]-1H-indol-5-yl}-2,2-difluoro-7-methyl-6,7-dihydro-2H-furo[2,3-f][1,3]benzodioxole-7-carboxamide]"
,2060 nM,72%,,2580 nM,67%,"CC(C)(CO)c1nc2cc(NC(=O)[C@@]3(C)COc4cc5c(cc43)OC(F)(F)O5)c(F)cc2n1C[C@@H](O)CO [Example 137, (7R)—N-{1-[(2R)-2,3-dihydroxypropyl]-6-fluoro-2-(1-hydroxy-2-methylpropan-2-yl)-1H-benzimidazol-5-yl}-2,2-difluoro-7-methyl-6,7-dihydro-2H-furo[2,3-f][1,3]benzodioxole-7-carboxamide]"
,1330 nM,157%,,550 nM,78%,"COc1ccc2c(c1)O[C@@H](c1cnc(C(=O)O)cn1)C[C@H]2NC(=O)[C@@]1(C)COc2cc3c(cc21)OC(F)(F)O3 [Example 144, 5-[(2R,4R)-4-{[(7R)-2,2-difluoro-7-methyl-6,7-dihydro-2H-furo[2,3-f][1,3]benzodioxole-7-carbonyl]amino}-7-methoxy-3,4-dihydro-2H-1-benzopyran-2-yl]pyrazine-2-carboxylic acid]"
,3 nM,118%,,0.831 nM,91%,"C[C@]1(C(=O)N[C@@H]2C[C@H](c3ccc(C(=O)O)cn3)Oc3cc(OC(F)(F)F)ccc32)COc2cc3c(cc21)OC(F)(F)O3 [Example 145, 6-[(2R,4R)-4-{[(7R)-2,2-difluoro-7-methyl-6,7-dihydro-2H-furo[2,3-f][1,3]benzodioxole-7-carbonyl]amino}-7-(trifluoromethoxy)-3,4-dihydro-2H-1-benzopyran-2-yl]pyridine-3-carboxylic acid]"
,335 nM,153%,,160 nM,89%,"COc1ccc2c(c1)O[C@@H](c1ccc(C(=O)O)nc1)C[C@H]2NC(=O)[C@@]1(C)COc2cc3c(cc21)OC(F)(F)O3 [Example 146, 5-[(2R,4R)-4-{[(7R)-2,2-difluoro-7-methyl-6,7-dihydro-2H-furo[2,3-f][1,3]benzodioxole-7-carbonyl]amino}-7-methoxy-3,4-dihydro-2H-1-benzopyran-2-yl]pyridine-2-carboxylic acid]"
,2200 nM,44%,,830 nM,24%,"C[C@]1(C(=O)N[C@H]2C[C@@H]([C@H]3CC[C@H](C(=O)O)CC3)Oc3cc(OC(F)(F)F)ccc32)COc2cc3c(cc21)OC(F)(F)O3 [Example 149, trans-4-[(2S,4S)-4-{[(7R)-2,2-difluoro-7-methyl-6,7-dihydro-2H-furo[2,3-f][1,3]benzodioxole-7-carbonyl]amino}-7-(trifluoromethoxy)-3,4-dihydro-2H-1-benzopyran-2-yl]cyclohexane-1-carboxylic acid]"
